{"source": "patent US7772001B2", "about": "“Directed differentiation of embryonic stem cells into an endoderm cell” (Yissum Research Development Company Of the Hebrew …, priority 2000, dated 2010)", "format_in_all_cases": "cell-based", "key": {"[1]": {"tested_on": "human EBs (from human ES cells)", "test": "In situ hybridization to NF-L RNA in cells derived from dissociated EBs", "conditions": "for proportion of neuronal cells in the cultures (NF-L RNA): controls 21%", "protocol": "(§1) In Situ Hybridization and Immunohistochemistry: EBs or their plated derivatives were fixed in 4% paraformaldehyde. In in-situ experiments, hybridization to a 50-mer 2′-O-methyl 5′-biotinylated cDNA of NF-L (SEQ ID NO:1) (CCTGCGTGCGGATGGAC […]) followed. The probes were then detected with streptavidin-conjugated alkaline phosphatase using a fluorogenic substrate (Grifman et al, 1998). For immunohistochemistry, EBs were either embedded in paraffin and sectioned at 10 μM, or stained directly on the plates. Mouse monoclonal anti-NF-II was used as a primary antibody, and was detected with Cy3-conjugated goat anti-mouse igG.\n(§2) Cell Culture. Human ES cells were grown and EBs were generated as described in Example 1. Four days following initiation of aggregation growth factors were administered: retinoic acid (Sigma): 10-^7 M (Bain et al, 1995) or 10^−6 (Bain et al, 1996); TGFβ1 (Sigma): 2 ng/ml (Slager et al, 1993); βNGF (New Biotechnology, Israel): 100 ng/ml (Wobus et al, 1988). After 21 days, EBs were plated on 5 μm/cm^2 collagen treated plates, either as whole EB's, or as single cells dissociated with trypsin/EDTA. The cultures were maintained for an additional week or 2 days, respectively.\nIn situ hybridization and immunohistochemistry was carried out according to Example 1. RT-PCR analysis. cDNA was synthesized from total RNA and PCR performed according to Example I. Primers for GAPDH, serotonin receptors 2A and 5A (5HT2A7 5HT5A, respectively) and dopamine receptor D1 (DRD1) were purchased from Clontech. The primers for dopa decarboxylase (DDC) were: […] (SEQ ID NO:2) and […] (SEQ ID NO:3).\nDifferentiation was initially assayed by in-situ hybridization to neurofilament light chain (NF-L) RNA, which is expressed by both immature and fully differentiated neurons (Carden et al, 1987)."}, "human EBs": {"tested_on": "human EBs", "test": "NF-H immunostaining of plated EBs, neuronal network complexity", "conditions": "RA treatment and plating on collagen; untreated EBs 54%", "protocol": "as §1, §2\nIn situ hybridization and immunohistochemistry was carried out according to Example 1. […]"}, "[2]": {"tested_on": "human differentiated embryonic (DE) cells", "test": "RT-PCR of cell specific genes in DE cells treated with growth factors", "conditions": "for expression of uro-genital marker WT-1 / set of cell specific transcripts produced: DE cells, 10 days with factor; for overall induction or repression of cell specific expression (FIG. 3B): at least three experiments; for blood formation / differentiation into Mullerian duct cells / differentiation into chondrocytes / differentiation into ectodermal cells / differentiation into endodermal cells / differentiation into kidney cells / differentiation into mesodermal cells / differentiation into skin cells / differentiation of brain cells (neurons) / differentiation of heart cells / differentiation of muscle / differentiation toward liver (hepatocytes) / differentiation toward pancreas (islet cells): vs control without growth factor (FIG. 4)", "protocol": "(§3) Cell Culture: Human embryonic stem cells were grown on a feeder layer of mouse embryonic fibroblasts (MEF) and then transferred to gelatin coated plates and cultured further to reduce the number of murine cells in the culture. Differentiation into embryoid bodies (EBs) was initiated by transfer to Petri dishes, where the embryoid bodies remained in suspension. After 5 days, the EBs become dissociated and cells are cultured as a monolayer forming differentiated embryonic (DE) cells. This protocol allows for initial differentiation of the human embryonic stem cells as aggregates and further differentiation as a monolayer wherein cells can be exposed to exogenous growth factors. The DE cells were cultured for 10 days in the presence of 8 different growth factors: NGF, bFGF, Activin-A, TGFβ1, HGF, EGF, BMP4 and retinoic acid (RA) (FIG. 1A).\nTo induce formation of EBs, ES cells were transferred using trypsin/EDTA (0.1%/l mM) to plastic Petri dishes to allow their aggregation and prevent adherence to the plate. Human EBs were grown in the same culture medium, except that it lacked leukemia inhibitory factor (LIF) and bFGF. The EBs were cultured for 5 days and then dissociated and plated on tissue culture plates coated with 50 μg/ml Fibronectin (Boehringer Mannheim). The cells were grown in the presence of the following human recombinant growth factors used singly or in groups: Basic Fibroblast Growth Factor (bFGF) (Swoboda et al, 1999)—10 ng/ml (Gibco BRL); Transforming Growth Factor Beta 1 (TGFβ1) (Swoboda et al, 1999)—2 ng/ml (R&D Systems); Activin-A (Slager et al, 1993)—20 ng/ml (R&D Systems); Bone Morphogenic Protein 4 (BMP-4) (Slager et al, 1993; Bain et al, 1996)—10 ng/ml (R&D Systems); Hepatocyte Growth Factor (HGF)/Scatter Factor (Doetsch et al, 1999)—20 ng/ml (R&D Systems); Epidermal Growth Factor (EGF) (Doetsch et al, 1999)—100 ng/ml (R&D Systems); βNerve Growth Factor (NGF) (Johansson et al, 1999)—100 ng/ml (R&D Systems); Retinoic acid (RA) (Deacon et al, 1998; Peschanski et al, 1995)—1 μM (Sigma). Under these conditions the differentiated embryonic (DE) cells were grown for another 10 days. All of the examined growth factors are absent from the KnockOut™ serum replacement in which the embryonic cells were cultured.\nRT-PCR Analysis: Total RNA was extracted using Atlas™ Pure Total RNA Kit (Clontech). cDNA was synthesized from 1 μg total RNA, using Atlas™ RT-for-PCR Kit (Clontech). cDNA samples were subjected to PCR amplification with DNA primers selective for the human genes. For each gene, the DNA primers were derived from different exons to ensure that the PCR product represents the specific mRNA species and not genomic DNA. PCR was performed using the Clontech Advantaq+™ RT-PCR kit and using a two-step cycle at 68° C.\nPrimers were synthesized for the following genes: neurofilament heavy chain (NF-H), phosphoprotein enriched in astrocytes (PEA-15), Keratin, Dopamine β Hydroxylase (DβH), Follicular Stimulating Hormone (FSH), Enolase, Myosin light polypeptide2 (myosin), Cartilage Matrix Protein (CMP), Renin, Kallikrein, Wilms Tumor 1 (WTI), β-Globin (β-Glob), δ-Globin (δ-Glob), Cardiac Actin (cACT), Albumin, α1 anti-trypsin (α1 AT), Lipase, Amylase, PDX-1, Insulin, Glucagon, Surfactant, Parathyroid Hormone (PTH), α-feto protein (αFP), Retinoic Acid Receptor type alpha (RAR), Hepatocyte Growth Factor Receptor (c-Met), Nerve Growth Factor Receptor (NGFR), Fibroblast Growth Factor Receptor type I (FGFRI), Transforming Growth Factor Receptor type II (TGFRII), Epidermal Growth Factor Receptor type (EGFR), Activin Receptor type IIB (ACTRIIB), Bone Morphogenic Protein 4 Receptor type II (BMP4RII), Octamer Binding Protein 4 (Oct 4), Glyceraldehyde 3-phosphate dehydrogenase (G3PD), β-Actin. Also incorporated by reference, see http://www.ls.huji.ac.il/˜nissimb/factors_es/primers.html-ente.\nThe differentiation induced by growth factors was further examined by determining the expression of a panel of 24 cell specific genes using RT-PCR. […]"}, "[3]": {"tested_on": "human differentiated embryonic (DE) cells", "test": "Morphology of DE cells cultured with growth factors", "conditions": "several days on plastic, continuous exposure to growth factor (FIG. 1B)", "protocol": "as §3\nTo induce formation of EBs, ES cells were transferred using trypsin/EDTA (0.1%/l mM) to plastic Petri dishes to allow their aggregation and prevent adherence to the plate. Human EBs were grown in the same culture medium, except that it lacked leukemia inhibitory factor (LIF) and bFGF. The EBs were cultured for 5 days and then dissociated and plated on tissue culture plates coated with 50 μg/ml Fibronectin (Boehringer Mannheim). […]"}}}
{"compound": "CC1=C(/C=C/C(C)=C/C=C/C(C)=C/C(=O)O)C(C)(C)CCC1", "note": "[RA, retinoic acid, reference compound]", "values": [{"measurement": "proportion of neuronal cells in the cultures (NF-L RNA)", "setting": "[1]; high concentration of RA (10^−6 M)", "result": 52, "unit": "%"}, {"measurement": "number of EBs containing NF-H positive neurons", "setting": "human EBs", "result": 76, "unit": "%"}]}
{"compound": "NGF: human recombinant β nerve growth factor, 100 ng/ml", "values": [{"measurement": "number of neuronal cells that develop from human embryonic cells", "setting": "[1]; summary statement", "result": "enhance"}, {"measurement": "proportion of neuronal cells in the cultures (NF-L RNA)", "setting": "[1]; βNGF 100 ng/ml", "result": 39, "unit": "%"}, {"measurement": "expression of adrenal markers", "setting": "[2]", "result": "not"}, {"measurement": "expression of endodermal markers", "setting": "[2]", "result": "induce"}, {"measurement": "expression of uro-genital marker WT-1", "setting": "[2]", "result": "expressed"}, {"measurement": "set of cell specific transcripts produced", "setting": "[2]", "result": "induce expression of a variety of transcripts indicative of cells from all three germ layers"}, {"measurement": "overall induction or repression of cell specific expression (FIG. 3B)", "setting": "[2]", "result": "induces the greatest variety of cell specific gene expression"}, {"measurement": "blood formation", "setting": "[2]", "result": "stimulate"}, {"measurement": "differentiation into Mullerian duct cells", "setting": "[2]", "result": "direct the differentiation"}, {"measurement": "differentiation into chondrocytes", "setting": "[2]", "result": "down-regulate"}, {"measurement": "differentiation into ectodermal cells", "setting": "[2]", "result": "allows"}, {"measurement": "differentiation into endodermal cells", "setting": "[2]", "result": "allows"}, {"measurement": "differentiation into kidney cells", "setting": "[2]", "result": "direct the differentiation"}, {"measurement": "differentiation into mesodermal cells", "setting": "[2]", "result": "allows"}, {"measurement": "differentiation into skin cells", "setting": "[2]", "result": "completely inhibited"}, {"measurement": "differentiation of brain cells (neurons)", "setting": "[2]", "result": "direct the differentiation"}, {"measurement": "differentiation of heart cells", "setting": "[2]", "result": "stimulate"}, {"measurement": "differentiation of muscle", "setting": "[2]", "result": "down-regulate"}, {"measurement": "differentiation toward liver (hepatocytes)", "setting": "[2]", "result": "direct the differentiation"}, {"measurement": "differentiation toward pancreas (islet cells)", "setting": "[2]", "result": "direct the differentiation"}]}
{"compound": "EGF: human recombinant Epidermal Growth Factor, 100 ng/ml (NSDSECPLSHDGYCLHDGVCMYIEALDKYACNCVVGYIGERCQYRDLKWWELR; UniProt P01133 971-1023, looked up)", "values": [{"measurement": "blood formation", "setting": "[2]", "result": "inhibits"}, {"measurement": "differentiation into ectodermal cells", "setting": "[2]", "result": "allow or induce"}, {"measurement": "differentiation into kidney cells", "setting": "[2]", "result": "inhibits"}, {"measurement": "differentiation into mesodermal cells", "setting": "[2]", "result": "allow or induce"}, {"measurement": "differentiation into skin cells", "setting": "[2]", "result": "stimulate"}, {"measurement": "differentiation of brain cells (neurons)", "setting": "[2]", "result": "inhibits"}, {"measurement": "differentiation of heart cells", "setting": "[2]", "result": "stimulate"}, {"measurement": "differentiation of muscle", "setting": "[2]", "result": "permits normal levels"}]}
{"compound": "bFGF: human recombinant Basic Fibroblast Growth Factor, 10 ng/ml", "values": [{"measurement": "cell morphology found in treated culture", "setting": "[3]", "result": "fibroblast like cells"}, {"measurement": "differentiation into ectodermal cells", "setting": "[2]", "result": "allow or induce"}, {"measurement": "differentiation into kidney cells", "setting": "[2]", "result": "inhibits"}, {"measurement": "differentiation into mesodermal cells", "setting": "[2]", "result": "allow or induce"}, {"measurement": "differentiation into skin cells", "setting": "[2]", "result": "permits formation of normal levels"}, {"measurement": "differentiation of brain cells (neurons)", "setting": "[2]", "result": "permits formation of normal levels"}, {"measurement": "differentiation of heart cells", "setting": "[2]", "result": "stimulates"}, {"measurement": "differentiation of muscle", "setting": "[2]", "result": "permits formation of normal levels"}]}
{"compound": "HGF: human recombinant Hepatocyte Growth Factor/Scatter Factor, 20 ng/ml", "values": [{"measurement": "cell morphology found in treated culture", "setting": "[3]", "result": "large populations of small cells with pronounced nuclei"}, {"measurement": "expression of uro-genital marker WT-1", "setting": "[2]", "result": "expressed"}, {"measurement": "blood formation", "setting": "[2]", "result": "significant inhibition"}, {"measurement": "differentiation into chondrocytes", "setting": "[2]", "result": "significant inhibition"}, {"measurement": "differentiation into ectodermal cells", "setting": "[2]", "result": "allows"}, {"measurement": "differentiation into endodermal cells", "setting": "[2]", "result": "allows"}, {"measurement": "differentiation into kidney cells", "setting": "[2]", "result": "completely inhibited"}, {"measurement": "differentiation into mesodermal cells", "setting": "[2]", "result": "allows"}, {"measurement": "differentiation into skin cells", "setting": "[2]", "result": "induced at their normal level"}, {"measurement": "differentiation of brain cells (neurons)", "setting": "[2]", "result": "significant inhibition"}, {"measurement": "differentiation toward liver (hepatocytes)", "setting": "[2]", "result": "significant inhibition"}, {"measurement": "differentiation toward pancreas (islet cells)", "setting": "[2]", "result": "significant inhibition"}]}
{"compound": "TGFβ1: human recombinant Transforming Growth Factor Beta 1, 2 ng/ml", "values": [{"measurement": "effect on neuronal differentiation (NF-L RNA)", "setting": "[1]; TGFβ1 2 ng/ml", "result": "no effect"}, {"measurement": "set of cell specific transcripts produced", "setting": "[2]", "result": "relatively reduced set of specific transcripts"}, {"measurement": "overall induction or repression of cell specific expression (FIG. 3B)", "setting": "[2]", "result": "mostly repress or fail to direct differentiation of as many cell types"}, {"measurement": "blood formation", "setting": "[2]", "result": "inhibit"}, {"measurement": "differentiation into Mullerian duct cells", "setting": "[2]", "result": "inhibit"}, {"measurement": "differentiation into chondrocytes", "setting": "[2]", "result": "inhibit"}, {"measurement": "differentiation into ectodermal cells", "setting": "[2]", "result": "inhibit"}, {"measurement": "differentiation into endodermal cells", "setting": "[2]", "result": "inhibit"}, {"measurement": "differentiation into kidney cells", "setting": "[2]", "result": "inhibit"}, {"measurement": "differentiation into mesodermal cells", "setting": "[2]", "result": "allow differentiation into selected mesodermal cells"}]}
